According to ChEMBL document CHEMBL5154869, “Discovery of 4-((E)-3,5-dimethoxy-2-((E)-2-nitrovinyl)styryl)aniline derivatives as potent and orally active NLRP3 inflammasome inhibitors for colitis” (Eur J Med Chem, 2022):
The source made the active and inactive calls. The calls are words filed in the database; no cut-off is given here.

Experiments:
[1] = biological target: NACHT, LRR and PYD domains-containing protein 3 (Mus musculus) (UniProt Q8R4B8); assay: Inhibition of NLRP3 inflammasome activation in LPS/nigericin-treated C57BL/6 mouse bone marrow-derived macrophages assessed as inhibition of ASC oligomerization preincubated for 3 hrs with LPS and for 30 mins with compound prior to nigericin addition and measured after 30 mins by Western blot analysis; format: cell-based; settings: BMDM, dose 0.5-2 µM, time 60.0 min, DDE = dose-dependent effect
Sequence of NACHT, LRR and PYD domains-containing protein 3 (Mus musculus) (Q8R4B8 whole entry, the tested form may be a part): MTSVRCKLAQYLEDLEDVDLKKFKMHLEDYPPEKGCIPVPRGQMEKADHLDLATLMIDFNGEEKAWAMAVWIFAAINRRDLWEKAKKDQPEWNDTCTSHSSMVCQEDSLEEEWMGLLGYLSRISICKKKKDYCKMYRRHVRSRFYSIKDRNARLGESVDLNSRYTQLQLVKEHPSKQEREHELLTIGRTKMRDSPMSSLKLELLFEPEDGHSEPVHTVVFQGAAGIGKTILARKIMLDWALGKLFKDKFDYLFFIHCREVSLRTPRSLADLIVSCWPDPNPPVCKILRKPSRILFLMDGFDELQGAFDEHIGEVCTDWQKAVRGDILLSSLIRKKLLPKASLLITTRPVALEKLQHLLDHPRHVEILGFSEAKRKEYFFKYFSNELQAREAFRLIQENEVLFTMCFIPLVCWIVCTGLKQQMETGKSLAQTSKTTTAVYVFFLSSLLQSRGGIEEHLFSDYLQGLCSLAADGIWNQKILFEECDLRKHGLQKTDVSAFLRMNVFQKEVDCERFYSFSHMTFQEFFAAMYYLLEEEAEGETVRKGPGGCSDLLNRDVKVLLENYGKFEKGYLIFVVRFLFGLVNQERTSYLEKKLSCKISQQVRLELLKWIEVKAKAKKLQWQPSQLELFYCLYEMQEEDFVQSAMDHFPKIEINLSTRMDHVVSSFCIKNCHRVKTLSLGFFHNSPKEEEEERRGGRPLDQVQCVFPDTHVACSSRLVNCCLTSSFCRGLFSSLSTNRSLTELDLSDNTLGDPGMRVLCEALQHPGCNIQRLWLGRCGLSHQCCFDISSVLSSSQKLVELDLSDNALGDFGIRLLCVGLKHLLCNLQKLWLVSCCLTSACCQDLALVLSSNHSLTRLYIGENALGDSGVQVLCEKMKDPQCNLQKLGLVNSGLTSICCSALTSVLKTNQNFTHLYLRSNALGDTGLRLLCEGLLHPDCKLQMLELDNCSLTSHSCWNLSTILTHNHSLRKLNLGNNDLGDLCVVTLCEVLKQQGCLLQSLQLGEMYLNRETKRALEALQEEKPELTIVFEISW

[2] = biological target: NACHT, LRR and PYD domains-containing protein 3 (Mus musculus) (UniProt Q8R4B8); assay: Inhibition of NLRP3 inflammasome activation in LPS/ATP-treated C57BL/6 mouse bone marrow-derived macrophages assessed as reduction in IL-1beta secretion preincubated for 3 hrs with LPS and for 30 mins with compound prior to ATP addition and measured after 30 mins by ELISA; format: cell-based; settings: BMDM, time 60.0 min
[3] = biological target: NACHT, LRR and PYD domains-containing protein 3 (Mus musculus) (UniProt Q8R4B8); assay: Inhibition of NLRP3 inflammasome activation in LPS/MSU-treated C57BL/6 mouse bone marrow-derived macrophages assessed as reduction in IL-1beta secretion preincubated for 3 hrs with LPS and for 30 mins with compound prior to MSU addition and measured after 30 mins by ELISA; format: cell-based; settings: BMDM, time 60.0 min
[4] = biological target: NACHT, LRR and PYD domains-containing protein 3 (Mus musculus) (UniProt Q8R4B8); assay: Inhibition of NLRP3 inflammasome activation in LPS/ATP-treated C57BL/6 mouse bone marrow-derived macrophages assessed as reduction in activated caspase 1(P20) level in cell lysates preincubated for 3 hrs with LPS and for 30 mins with compound prior to ATP addition and measured after 30 mins by Western blot analysis; format: subcellular; settings: BMDM, time 60.0 min
[5] = biological target: NACHT, LRR and PYD domains-containing protein 3 (Mus musculus) (UniProt Q8R4B8); assay: Inhibition of NLRP3 inflammasome activation in LPS-stimulated mouse J774.A1 cells assessed as reduction in pyroptosis pretreated for 4 hrs with LPS and for 30 mins with compound prior to ATP addition and measured after 30 mins by PI/Hoechst33342 staining based analysis; format: cell-based; settings: dose 2.5-10 µM, time 60.0 min, DDE = dose-dependent effect
[6] = biological target: NACHT, LRR and PYD domains-containing protein 3 (Mus musculus) (UniProt Q8R4B8); assay: Inhibition of NLRP3 inflammasome activation in LPS-stimulated mouse J774.A1 cells assessed as reduction in pyroptosis at 10 uM pretreated for 4 hrs with LPS and for 30 mins with compound prior to ATP addition and measured after 30 mins by PI/Hoechst33342 staining based analysis; format: cell-based; settings: time 60.0 min
[7] = biological target: NACHT, LRR and PYD domains-containing protein 3 (Mus musculus) (UniProt Q8R4B8); assay: Inhibition of NLRP3 inflammasome activation in LPS/MSU-treated C57BL/6 mouse bone marrow-derived macrophages assessed as reduction in cleaved IL-1 beta level in culture supernatants preincubated for 3 hrs with LPS and for 30 mins with compound prior to MSU addition and measured after 30 mins by Western blot analysis; format: cell-based; settings: BMDM, time 60.0 min
[8] = biological target: NACHT, LRR and PYD domains-containing protein 3 (Mus musculus) (UniProt Q8R4B8); assay: Inhibition of NLRP3 inflammasome activation in LPS/nigericin-treated C57BL/6 mouse bone marrow-derived macrophages assessed as reduction in NEK7-NLRP3 protein-protein interaction at 2 to 4 uM preincubated for 3 hrs with LPS and for 30 mins with compound prior to nigericin addition and measured after 30 mins by immunoprecipitation method; format: cell-based; settings: BMDM, dose 2-4 µM, time 60.0 min
[9] = biological target: NACHT, LRR and PYD domains-containing protein 3 (Mus musculus) (UniProt Q8R4B8); assay: Inhibition of NLRP3 inflammasome activation in LPS/ATP-treated C57BL/6 mouse bone marrow-derived macrophages assessed as reduction in activated caspase 1(P20) level in culture supernatants preincubated for 3 hrs with LPS and for 30 mins with compound prior to ATP addition and measured after 30 mins by Western blot analysis; format: cell-based; settings: BMDM, time 60.0 min
Mus musculus [10] = assay: Anti-colitis activity against DSS-induced colitis C57BL/6 mouse model assessed as reduction in disease activity index administered po once a day; format: functional, organism-based; settings: dose 10-20 mg/kg, DDE = dose-dependent effect
[11] = biological target: NACHT, LRR and PYD domains-containing protein 3 (Mus musculus) (UniProt Q8R4B8); assay: Inhibition of NLRP3 inflammasome activation in LPS/nigericin-treated C57BL/6 mouse bone marrow-derived macrophages assessed as reduction in cleaved IL-1 beta level in culture supernatants preincubated for 3 hrs with LPS and for 30 mins with compound prior to nigericin addition and measured after 30 mins by Western blot analysis; format: cell-based; settings: BMDM, dose 0.5-2 µM, time 60.0 min, DDE = dose-dependent effect
Mus musculus [12] = assay: Anti-colitis activity against DSS-induced colitis C57BL/6 mouse model assessed as reduction in TNF-alpha level in colon at 10 to 20 mg/kg, po administered once a day and measured on day 8 by ELISA; format: functional, organism-based; settings: dose 10-20 mg/kg, time 8.0 day
Mus musculus [13] = assay: Anti-colitis activity against DSS-induced colitis C57BL/6 mouse model assessed as reduction in pathological index score of colon at 10 to 20 mg/kg, po administered once a day and measured on day 8 by H and E staining based analysis; format: functional, organism-based; settings: dose 10-20 mg/kg, time 8.0 day
[14] = biological target: NACHT, LRR and PYD domains-containing protein 3 (Mus musculus) (UniProt Q8R4B8); assay: Inhibition of NLRP3 inflammasome activation in LPS/ATP-treated C57BL/6 mouse bone marrow-derived macrophages assessed as reduction in cleaved IL-1 beta level in culture supernatants preincubated for 3 hrs with LPS and for 30 mins with compound prior to ATP addition and measured after 30 mins by Western blot analysis; format: cell-based; settings: BMDM, time 60.0 min
[15] = biological target: NACHT, LRR and PYD domains-containing protein 3 (Mus musculus, UniProt Q8R4B8); assay: (§1) Inhibition of NLRP3 inflammasome activation in LPS/nigericin-treated C57BL/6 mouse bone marrow-derived macrophages assessed as reduction in IL-1beta secretion preincubated for 3 hrs with LPS and for 30 mins with compound prior to nigericin addition and measured after 30 mins by ELISA; format: cell-based, BMDM
Sequence of NACHT, LRR and PYD domains-containing protein 3 (Mus musculus, UniProt Q8R4B8) (Q8R4B8 whole entry, the tested form may be a part): as above

[16] = biological target: NACHT, LRR and PYD domains-containing protein 3 (Mus musculus) (UniProt Q8R4B8); assay: as §1; format: cell-based; settings: BMDM, time 60.0 min, DDE = dose-dependent effect
[17] = biological target: NACHT, LRR and PYD domains-containing protein 3 (Mus musculus) (UniProt Q8R4B8); assay: Inhibition of NLRP3 inflammasome activation in LPS/MSU-treated C57BL/6 mouse bone marrow-derived macrophages assessed as reduction in activated caspase 1(P20) level in cell lysates preincubated for 3 hrs with LPS and for 30 mins with compound prior to MSU addition and measured after 30 mins by Western blot analysis; format: subcellular; settings: BMDM, time 60.0 min
[18] = biological target: NACHT, LRR and PYD domains-containing protein 3 (Mus musculus) (UniProt Q8R4B8); assay: Binding affinity to NLRP3 in mouse J774.A1 cell lysates assessed as reduction in protein degradation at 50 uM incubated at 48 to 78 degC by CETSA; format: subcellular
Mus musculus [19] = assay: Anti-colitis activity against DSS-induced colitis C57BL/6 mouse model assessed as reduction in body weight loss at 10 to 20 mg/kg, po administered once a day; format: functional, organism-based; settings: dose 10-20 mg/kg
[20] = biological target: NACHT, LRR and PYD domains-containing protein 3 (Homo sapiens, UniProt Q96P20); assay: Binding affinity to GFP-fused NLRP3 (unknown origin) expressed in HEK293T cells by MST assay; format: cell-based
Sequence of NACHT, LRR and PYD domains-containing protein 3 (Homo sapiens, UniProt Q96P20) (Q96P20 whole entry, the tested form may be a part): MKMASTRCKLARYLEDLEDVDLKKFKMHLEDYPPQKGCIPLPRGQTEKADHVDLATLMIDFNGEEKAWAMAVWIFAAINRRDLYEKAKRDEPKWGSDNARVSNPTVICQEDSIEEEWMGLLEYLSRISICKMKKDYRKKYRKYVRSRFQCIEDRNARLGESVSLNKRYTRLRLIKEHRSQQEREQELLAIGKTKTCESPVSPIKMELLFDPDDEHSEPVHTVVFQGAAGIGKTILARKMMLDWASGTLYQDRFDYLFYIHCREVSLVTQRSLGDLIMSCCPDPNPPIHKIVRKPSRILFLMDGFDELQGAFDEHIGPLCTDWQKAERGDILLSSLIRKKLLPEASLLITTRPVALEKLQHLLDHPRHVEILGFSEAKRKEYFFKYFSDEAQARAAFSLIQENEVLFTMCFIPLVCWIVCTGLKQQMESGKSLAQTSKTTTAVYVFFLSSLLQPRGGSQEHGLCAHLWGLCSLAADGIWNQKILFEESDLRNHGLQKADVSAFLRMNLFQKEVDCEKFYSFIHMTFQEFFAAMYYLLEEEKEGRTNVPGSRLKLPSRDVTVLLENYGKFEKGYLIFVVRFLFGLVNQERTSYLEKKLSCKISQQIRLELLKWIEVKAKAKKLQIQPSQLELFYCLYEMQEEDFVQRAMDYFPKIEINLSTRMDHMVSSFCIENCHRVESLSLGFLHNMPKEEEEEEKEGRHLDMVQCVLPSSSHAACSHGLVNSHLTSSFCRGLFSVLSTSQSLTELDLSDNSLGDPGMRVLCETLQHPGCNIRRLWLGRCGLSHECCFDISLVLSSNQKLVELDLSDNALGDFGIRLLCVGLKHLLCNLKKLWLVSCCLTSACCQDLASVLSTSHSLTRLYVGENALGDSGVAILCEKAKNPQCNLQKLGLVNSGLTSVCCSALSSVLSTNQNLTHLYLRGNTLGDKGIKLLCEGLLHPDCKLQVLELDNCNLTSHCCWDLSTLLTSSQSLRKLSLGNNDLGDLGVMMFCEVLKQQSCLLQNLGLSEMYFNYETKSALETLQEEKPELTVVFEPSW

Mus musculus [21] = assay: Anti-colitis activity against DSS-induced colitis C57BL/6 mouse model assessed as reduction in IL-1 beta level in colon at 10 to 20 mg/kg, po administered once a day and measured on day 8 by ELISA; format: functional, organism-based; settings: dose 10-20 mg/kg, time 8.0 day
Mus musculus [22] = assay: Anti-colitis activity against DSS-induced colitis C57BL/6 mouse model assessed as reduction in decrease of goblet cells in colon at 10 to 20 mg/kg, po administered once a day and measured on day 8 by H and E staining based analysis; format: functional, organism-based; settings: dose 10-20 mg/kg, time 8.0 day
[23] = Inhibition of LPS/nigericin-induced reactive oxygen species production in C57BL/6 mouse bone marrow-derived macrophages assessed as ROS level at 4 uM by DCFH-DA staining based flow cytometry (reference value: 33.51%); format: functional, BMDM; design: scale not given: the % may be the effect or the level left
[24] = Metabolic stability in human hepatocytes assessed as intrinsic clearance by LC-MS/MS analysis; format: ADME, cell-based, Hepatocyte; settings: read-out: CLH
[25] = Cytotoxicity against human L02 cells assessed as reduction in cell viability incubated for 24 hrs by MTT assay; format: toxicity, cell-based
[26] = Inhibition of LPS/nigericin-induced reactive oxygen species production in C57BL/6 mouse bone marrow-derived macrophages assessed as ROS level at 2 uM by DCFH-DA staining based flow cytometry (reference value: 33.51%); format: functional, BMDM; design: scale not given: the % may be the effect or the level left
[27] = Metabolic stability in human liver microsomes assessed as half life by LC-MS/MS analysis; format: ADME, Microsome

SMILES: COc1cc(/C=C/c2ccc(NC(=O)c3ccco3)cc2)c(/C=C/[N+](=O)[O-])c(OC)c1
- inhibition [1]: Dde
- inhibition [2]: Active
- inhibition [3]: Active
- inhibition [4]: Active
- inhibition [5]: Dde
- inhibition [6]: 70.8%
- inhibition [7]: Active
- inhibition [8]: Active
- inhibition [9]: Active
- Activity (Mus musculus [10]): Dde
- inhibition [11]: Dde
- Activity (Mus musculus [12]): Active
- Activity (Mus musculus [13]): Active
- inhibition [14]: Active
- IC50 [15]: 1.23 µM
- inhibition [16]: Dde
- inhibition [17]: Active
- inhibition [18]: Active
- Activity (Mus musculus [19]): Active
- Kd [20]: 0.213 µM
- Activity (Mus musculus [21]): Active
- Activity (Mus musculus [22]): Active
- Activity [23]: 29.01%
- CLint scaled [24]: 7.4 mL/min/kg
- IC50 at 24 h [25]: > 100 µM
- Activity [26]: 29.79%
- half-life [27]: 2.31 h
